Data as given in ChEMBL document CHEMBL1133842, “Identification of a series of PPAR gamma/delta dual agonists via solid-phase parallel synthesis” (Bioorg Med Chem Lett, 2001).
pEC50: −log10 of the molar value.

Legend:
[1] = target: T1, Peroxisome proliferator-activated receptor alpha (Homo sapiens, UniProt Q07869); experiment: Agonistic transcriptional activity in CV-1 cells expressing Gal4-PPAR alpha chimera; type: functional, cell-based
T1 sequence (Q07869 whole entry): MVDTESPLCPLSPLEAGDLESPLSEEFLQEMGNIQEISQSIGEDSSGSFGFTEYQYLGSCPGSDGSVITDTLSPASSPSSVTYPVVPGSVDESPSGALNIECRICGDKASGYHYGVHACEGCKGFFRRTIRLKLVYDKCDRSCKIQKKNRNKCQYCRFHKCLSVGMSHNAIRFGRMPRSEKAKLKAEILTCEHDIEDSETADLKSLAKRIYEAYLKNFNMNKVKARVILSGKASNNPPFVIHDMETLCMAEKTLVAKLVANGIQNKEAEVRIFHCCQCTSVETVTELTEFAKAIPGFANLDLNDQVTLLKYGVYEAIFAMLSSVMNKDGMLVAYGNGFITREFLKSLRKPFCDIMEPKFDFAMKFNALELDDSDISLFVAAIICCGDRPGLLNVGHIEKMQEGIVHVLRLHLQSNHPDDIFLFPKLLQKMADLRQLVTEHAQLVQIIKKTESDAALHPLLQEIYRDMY

[2] = target: T2, Peroxisome proliferator-activated receptor delta (Homo sapiens, UniProt Q03181); experiment: Agonistic transcriptional activity in CV-1 cells expressing Gal4-PPAR delta chimera; type: functional, cell-based
T2 sequence (Q03181 whole entry): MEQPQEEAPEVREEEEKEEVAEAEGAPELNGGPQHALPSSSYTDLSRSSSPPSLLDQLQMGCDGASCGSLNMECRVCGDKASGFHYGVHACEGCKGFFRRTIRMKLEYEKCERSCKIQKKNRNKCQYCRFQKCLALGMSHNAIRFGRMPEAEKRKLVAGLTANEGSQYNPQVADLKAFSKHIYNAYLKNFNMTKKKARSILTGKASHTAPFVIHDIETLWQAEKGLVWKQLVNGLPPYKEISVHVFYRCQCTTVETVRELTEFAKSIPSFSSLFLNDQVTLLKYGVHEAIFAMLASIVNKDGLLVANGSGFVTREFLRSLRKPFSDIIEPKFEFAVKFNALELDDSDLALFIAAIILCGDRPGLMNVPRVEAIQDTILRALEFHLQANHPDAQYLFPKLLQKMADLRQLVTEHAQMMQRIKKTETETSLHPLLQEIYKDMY

[3] = Mean plasma concentration at a oral dose of 3 mg/kg in rat at 0.5 hr; type: ADME, organism-based; set-up: dose 3 mg/kg, route oral
[4] = target: T3, Peroxisome proliferator-activated receptor delta (Mus musculus, UniProt P35396); experiment: Agonist activity against PPAR delta; type: functional
T3 sequence (P35396 whole entry): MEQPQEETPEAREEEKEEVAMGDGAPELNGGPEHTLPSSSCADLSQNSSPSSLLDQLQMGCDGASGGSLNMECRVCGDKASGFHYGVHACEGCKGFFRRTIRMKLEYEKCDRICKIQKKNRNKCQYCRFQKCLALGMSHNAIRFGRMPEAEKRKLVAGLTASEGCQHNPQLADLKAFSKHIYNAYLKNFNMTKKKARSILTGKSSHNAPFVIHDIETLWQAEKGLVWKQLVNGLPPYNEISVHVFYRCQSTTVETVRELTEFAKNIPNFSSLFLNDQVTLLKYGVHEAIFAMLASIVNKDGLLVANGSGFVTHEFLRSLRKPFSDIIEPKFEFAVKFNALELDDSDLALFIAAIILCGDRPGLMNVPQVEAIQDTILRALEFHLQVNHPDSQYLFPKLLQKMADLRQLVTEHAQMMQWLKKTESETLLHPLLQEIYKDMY

Rattus norvegicus [5] = experiment: In vivo percent reduction in serum triglycerides in ZDF rats at 30 mg/kg bid dose after 7 day administration; type: functional
[6] = Mean plasma concentration at a oral dose of 3 mg/kg in rat at 2.0 hr; type: ADME, organism-based; set-up: dose 3 mg/kg, route oral
[7] = target: T4, Peroxisome proliferator-activated receptor alpha (Mus musculus, UniProt P23204); experiment: Agonist activity against PPAR alpha; type: functional
T4 sequence (P23204 whole entry): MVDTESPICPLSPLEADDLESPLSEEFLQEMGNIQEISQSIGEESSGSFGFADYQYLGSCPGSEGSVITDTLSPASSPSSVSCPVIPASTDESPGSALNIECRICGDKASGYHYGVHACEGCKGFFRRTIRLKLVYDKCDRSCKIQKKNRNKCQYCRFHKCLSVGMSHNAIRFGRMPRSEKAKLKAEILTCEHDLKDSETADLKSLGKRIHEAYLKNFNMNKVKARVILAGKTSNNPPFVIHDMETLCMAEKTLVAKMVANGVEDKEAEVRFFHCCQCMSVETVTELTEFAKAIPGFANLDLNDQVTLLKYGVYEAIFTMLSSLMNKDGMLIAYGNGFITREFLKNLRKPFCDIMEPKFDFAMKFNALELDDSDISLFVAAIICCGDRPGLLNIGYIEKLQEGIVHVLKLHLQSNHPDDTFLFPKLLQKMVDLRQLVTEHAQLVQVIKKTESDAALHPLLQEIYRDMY

[8] = target: T5, Peroxisome proliferator-activated receptor gamma (Mus musculus, UniProt P37238); experiment: Agonist activity against PPAR gamma; type: functional
T5 sequence (P37238 whole entry): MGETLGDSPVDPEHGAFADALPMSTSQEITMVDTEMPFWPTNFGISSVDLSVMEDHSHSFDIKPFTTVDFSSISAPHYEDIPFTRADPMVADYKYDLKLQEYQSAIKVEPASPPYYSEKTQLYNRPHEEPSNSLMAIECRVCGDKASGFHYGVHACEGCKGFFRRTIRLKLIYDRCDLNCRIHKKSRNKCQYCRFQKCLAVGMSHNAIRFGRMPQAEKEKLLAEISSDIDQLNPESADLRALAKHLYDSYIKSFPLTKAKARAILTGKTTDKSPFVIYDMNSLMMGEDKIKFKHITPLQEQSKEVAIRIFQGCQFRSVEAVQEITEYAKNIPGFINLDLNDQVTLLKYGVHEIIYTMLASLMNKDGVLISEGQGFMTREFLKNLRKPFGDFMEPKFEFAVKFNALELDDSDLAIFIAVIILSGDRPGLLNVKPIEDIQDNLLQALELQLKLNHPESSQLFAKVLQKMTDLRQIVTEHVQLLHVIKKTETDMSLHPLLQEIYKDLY

[9] = target: T6, Peroxisome proliferator-activated receptor gamma (Homo sapiens, UniProt P37231); experiment: Agonistic transcriptional activity in CV-1 cells expressing Gal4-PPAR gamma chimera; type: functional, cell-based
T6 sequence (P37231 whole entry): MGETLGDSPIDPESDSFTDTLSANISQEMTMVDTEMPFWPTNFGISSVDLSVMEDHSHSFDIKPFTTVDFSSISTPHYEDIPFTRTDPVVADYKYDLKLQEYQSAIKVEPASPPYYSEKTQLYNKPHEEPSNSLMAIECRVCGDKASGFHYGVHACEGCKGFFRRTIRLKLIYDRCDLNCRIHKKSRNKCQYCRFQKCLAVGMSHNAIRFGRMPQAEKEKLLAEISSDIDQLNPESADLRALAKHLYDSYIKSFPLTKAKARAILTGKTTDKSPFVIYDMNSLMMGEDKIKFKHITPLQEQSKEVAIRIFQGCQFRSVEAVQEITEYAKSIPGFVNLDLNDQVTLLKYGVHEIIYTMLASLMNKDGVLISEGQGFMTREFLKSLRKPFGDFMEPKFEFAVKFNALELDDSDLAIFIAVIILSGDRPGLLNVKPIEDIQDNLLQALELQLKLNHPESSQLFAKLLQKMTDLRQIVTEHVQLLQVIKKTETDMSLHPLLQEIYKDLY

Rattus norvegicus [10] = experiment: In vivo increase in HDL-c in ZDF rats at 30 mg/kg bid dose after 7 day administration; type: functional
[11] = Mean plasma concentration at a oral dose of 3 mg/kg in rat at 1.0 hr; type: ADME, organism-based; set-up: dose 3 mg/kg, route oral
Rattus norvegicus [12] = experiment: In vivo percent reduction in plasma glucose in ZDF rats at 30 mg/kg bid dose after 7 day administration; type: functional

| SMILES | pEC50 [1] | pEC50 [2] | concentration at 0.5 h [3] | pEC50 [4] | Reduction (Rattus norvegicus [5]) | concentration at 2 h [6] | pEC50 [7] | pEC50 [8] | pEC50 [9] | Reduction (Rattus norvegicus [10]) | concentration at 1 h [11] | Reduction (Rattus norvegicus [12]) |
| --- | --- | --- | --- | --- | --- | --- | --- | --- | --- | --- | --- | --- |
| CC(C)(Oc1cccc(CCCN(Cc2ccc(C(F)(F)F)cc2C(F)(F)F)C(=O)Cc2ccc(C(F)(F)F)cc2)c1)C(=O)O | 6.21 | 7.72 | 373 ng/mL | 7.72 | 51% | 524 ng/mL | < 6.00 | 7.55 | 8.40 | 24% | 722 ng/mL | 47% |
| CC(C)(Oc1cccc(CCCN(Cc2ccc(C(F)(F)F)cc2C(F)(F)F)C(=O)COc2ccc(Cl)c(Cl)c2)c1)C(=O)O | 6.15 | 7.03 |  |  |  |  |  |  | 7.52 |  |  |  |
| CCOC(=O)c1ccc(NC(=O)N(CCCc2cccc(OC(C)(C)C(=O)O)c2)Cc2ccc(C(F)(F)F)cc2C(F)(F)F)cc1 | 6.64 | 6.80 |  |  |  |  |  |  | 9.30 |  |  |  |
